Patent US9284323B2, “Naphthalene acetic acid derivatives against HIV infection” (Gilead Sciences, Inc., priority 2012, dated 2016)

System: HIV-IIIb
Experiment: Test A: Antiviral Assays in MT4 Cells
Assay type: cell-based
Conditions: Human immunodeficiency virus 1, IIIB, MT4, 120 h, Table I; MT-4 cells infected with HIV-IIIb, 5 days incubation, CellTiter-Glo readout
Description: The antiviral properties of a compound disclosed herein may be determined using Test A described below.
Test A: Antiviral Assays in MT4 Cells
For the antiviral assay utilizing MT-4 cells, 0.4 μL of […] test concentration of 3-fold serially diluted compound in DMSO was added to 40 μL of cell growth medium (RPMI 1640, 10% FBS, 1% penicillin/Streptomycin, 1% L-Glutamine, 1% HEPES) in each well of 384-well assay plates (10 concentrations) in quadruplicate.
1 mL aliquots of 2×10e6 MT-4 cells are pre-infected for 1 and 3 hrs respectively, @ 37° C. with 25 μL (MT4) or of either cell growth medium (mock-infected) or a fresh 1:250 dilution of an HIV-IIIb concentrated ABI stock (0.004 m.o.i. for MT4 cells). Infected and uninfected cells are diluted in cell growth medium and 35 μL of 2000 (for MT4) cells is added to each well of the assay plates.
Assay plates were then incubated in a 37° C. incubator. After 5 days of incubation, 25 μl of 2× concentrated CellTiter-Glo™ Reagent (catalog # G7573, Promega Biosciences, Inc., Madison, Wis.) was added to each well of the assay plate. Cell lysis was carried out by incubating at room temperature for 2-3 min and then chemiluminescence was read using the Envision reader (PerkinElmer).

SMILES	EC50
Cc1cc2ccc(C#CC(O)(c3ccccc3)C(F)(F)F)cc2c(-c2ccc(Cl)cc2)c1[C@H](OC(C)(C)C)C(=O)O (stereo partly drawn) [Example 9, (2S)-2-tert-butoxy-2-(1-(4-chlorophenyl)-3-methyl-7-(4,4,4-trifluoro-3-hydroxy-3-phenylbut-1-ynyl)naphthalen-2-yl)acetic acid]	186 nM
Cc1cc2ccc(C#CC(C)(O)c3ccncc3)cc2c(-c2ccc(Cl)cc2)c1[C@H](OC(C)(C)C)C(=O)O (stereo partly drawn) [Example 12, (2S)-2-tert-Butoxy-2-(1-(4-chlorophenyl)-7-(3-hydroxy-3-(pyridin-4-yl)but-1-ynyl)-3-methylnaphthalen-2-yl)acetic acid]	32 nM
Cc1ccc2cc(C)c([C@H](OC(C)(C)C)C(=O)O)c(-c3ccc4c5c(ccnc35)CCO4)c2c1 (atropisomer, axis not shown) [Example 15, (S)-2-tert-Butoxy-2-((R)-1-(2,3-dihydropyrano[4,3,2-de]quinolin-7-yl)-3,7-dimethylnaphthalen-2-yl)acetic acid]	34 nM
Cc1cc2cc(C#CC3CC3)ccc2c(-c2ccc3c4c(ccnc24)CCO3)c1[C@H](OC(C)(C)C)C(=O)O (atropisomer, axis not shown) [Example 21, (S)-2-tert-Butoxy-2-((R)-6-(cyclopropylethynyl)-1-(2,3-dihydropyrano[4,3,2-de]quinolin-7-yl)-3-methylnaphthalen-2-yl)acetic acid]	169 nM
CCOc1c(C#N)ccc2c(-c3ccc4c5c(ccnc35)CCO4)c([C@H](OC(C)(C)C)C(=O)O)c(C)cc12 (atropisomer, axis not shown) [Example 22, (S)-2-tert-Butoxy-2-((R)-6-cyano-1-(2,3-dihydropyrano[4,3,2-de]quinolin-7-yl)-5-ethoxy-3-methylnaphthalen-2-yl)acetic acid]	14 nM
Cc1cc2ccc(C#CC(C)(O)c3cccnc3)cc2c(-c2ccc(Cl)cc2)c1[C@H](OC(C)(C)C)C(=O)O (stereo partly drawn) [Example 11, (2S)-2-tert-Butoxy-2-(1-(4-chlorophenyl)-7-(3-hydroxy-3-(pyridin-3-yl)but-1-ynyl)-3-methylnaphthalen-2-yl)acetic acid]	24 nM
CCCCC(C)(C)O[C@H](C(=O)O)c1c(C)cc2ccccc2c1-c1ccc2c3c(ccnc13)CCO2 (atropisomer, axis not shown) [Example 30, (S)-2-((S)-1-(2,3-Dihydropyrano[4,3,2-de]quinolin-7-yl)-3-methylnaphthalen-2-yl)-2-(2-methylhexan-2-yloxy)acetic acid]	84 nM
CCCC(C)(C)O[C@H](C(=O)O)c1c(C)cc2ccccc2c1-c1ccc2c3c(ccnc13)CCO2 (atropisomer, axis not shown) [Example 29, (S)-2-((R)-1-(2,3-Dihydropyrano[4,3,2-de]quinolin-7-yl)-3-methylnaphthalen-2-yl)-2-(2-methylpentan-2-yloxy)acetic acid]	84 nM

Same assay, conditions: Human immunodeficiency virus 1, IIIB, MT4, 120 h, Table II; MT-4 cells infected with HIV-IIIb, 5 days incubation, CellTiter-Glo readout

EC50	SMILES
8.72 nM	Cc1ccc2c(-c3ccc4c5c(ccnc35)CCO4)c([C@H](OC(C)(C)CF)C(=O)O)c(C)cc2c1 (atropisomer, axis not shown) [Example 64]
2950 nM	Cc1cc2ccccc2c(-c2ccc3c4c(ccnc24)CCO3)c1[C@@H](OC(C)(CF)CF)C(=O)O (atropisomer, axis not shown) [Example 104]
4.23 nM	Cc1cc2c(C)c(-c3cnc(N4CCN(C)CC4)nc3)ccc2c(-c2ccc3c4c(ccnc24)CCO3)c1[C@H](OC(C)(C)C)C(=O)O (atropisomer, axis not shown) [Example 71]
10.4 nM	Cc1cc2cc(-c3cnc(N(C)C)nc3)ccc2c(-c2ccc3c4c(ccnc24)CCO3)c1[C@H](OC(C)(C)C)C(=O)O (atropisomer, axis not shown) [Example 48]
30.7 nM	Cc1cc2ccccc2c(-c2ccc3c4c(ccnc24)CCO3)c1C(OC(C)(C)CF)C(=O)O (stereo not shown) [Example 103]
41.1 nM	Cc1cc2cc(-c3cncnc3C(C)C)ccc2c(-c2ccc3c4c(ccnc24)CCO3)c1[C@H](OC(C)(C)C)C(=O)O (atropisomer, axis not shown) [Example 62]
52.3 nM	Cc1cc2c3c(ccc2c(-c2ccc4c5c(ccnc25)CCO4)c1[C@H](OC(C)(C)C)C(=O)O)COC3 (atropisomer, axis not shown) [Example 67]
45.1 nM	CCOc1ncc(-c2ccc3c(-c4ccc5c6c(ccnc46)CCO5)c([C@H](OC(C)(C)C)C(=O)O)c(C)cc3c2)c(OCC)n1 (atropisomer, axis not shown) [Example 50]
18 nM	Cc1cc2ccccc2c(-c2ccc3c4c(ccnc24)CCO3)c1[C@H](OC(C)(C)CF)C(=O)O (atropisomer, axis not shown) [Example 102]
4.4 nM	Cc1cc2cc(-c3cnc(N4CCN(C)CC4)nc3)ccc2c(-c2ccc3c4c(ccnc24)CCO3)c1[C@H](OC(C)(C)C)C(=O)O (atropisomer, axis not shown) [Example 35]
12.2 nM	COc1ncc(-c2ccc3c(-c4ccc5c6c(ccnc46)CCO5)c([C@H](OC(C)(C)C)C(=O)O)c(C)cc3c2)cn1 (atropisomer, axis not shown) [Example 60]
7.92 nM	Cc1c([C@H](OC(C)(C)C)C(=O)O)c(-c2ccc3c4c(ccnc24)CCO3)c2ccccc2c1N (atropisomer, axis not shown) [Example 93]

Same assay, conditions: Table I; MT-4 cells infected with HIV-IIIb, 5 days incubation, CellTiter-Glo readout

EC50	SMILES
37 nM	COCC(C)(C)O[C@H](C(=O)O)c1c(C)cc2ccccc2c1-c1ccc2c3c(ccnc13)CCO2 (atropisomer, axis not shown) [Example 25, (2S)-2-((R)-1-(2,3-dihydropyrano[4,3,2-de]quinolin-7-yl)-3-methylnaphthalen-2-yl)-2-(1-methoxy-2-methylpropan-2-yloxy)acetic acid]
929 nM	COCC(C)(C)O[C@H](C(=O)O)c1c(C)cc2ccccc2c1-c1ccc2c3c(ccnc13)CCO2 (atropisomer, axis not shown) [Example 26, (2S)-2-((S)-1-(2,3-Dihydropyrano[4,3,2-de]quinolin-7-yl)-3-methylnaphthalen-2-yl)-2-(1-methoxy-2-methylpropan-2-yloxy)acetic acid]

Same assay, conditions: Table II; MT-4 cells infected with HIV-IIIb, 5 days incubation, CellTiter-Glo readout

EC50	SMILES
4450 nM	Cc1cc2cc(-c3cnc(-c4ccccc4)nc3)ccc2c(-c2ccc3c4c(ccnc24)CCO3)c1[C@H](OC(C)(C)C)C(=O)O (atropisomer, axis not shown) [Example 37]
43 nM	Cc1cc2ccccc2c(-c2ccc3c4c(ccnc24)CCO3)c1[C@H](OC(C)(C)CCF)C(=O)O (atropisomer, axis not shown) [Example 97]
45.8 nM	CC(C)(C)O[C@H](C(=O)O)c1c2c(c3ccccc3c1-c1ccc3c4c(ccnc14)CCO3)OCC2 (atropisomer, axis not shown) [Example 78]
21.1 nM	Cc1cc2c(C)c(-c3cncnc3)ccc2c(-c2ccc3c4c(ccnc24)CCO3)c1[C@H](OC(C)(C)C)C(=O)O (atropisomer, axis not shown) [Example 80]
9910 nM	CC(C)(C)O[C@H](C(=O)O)c1c2c(c3ccccc3c1-c1ccc3c4c(ccnc14)CCO3)OCC2 (atropisomer, axis not shown) [Example 79]
1310 nM	Cc1c([C@H](OC(C)(C)C)C(=O)O)c(-c2ccc3c4c(ccnc24)CCO3)c2ccccc2c1C(F)F (atropisomer, axis not shown) [Example 87]
74.2 nM	Cc1cc2cc(-c3cncnc3N)ccc2c(-c2ccc3c4c(ccnc24)CCO3)c1[C@H](OC(C)(C)C)C(=O)O (atropisomer, axis not shown) [Example 53]
471 nM	Cc1cc2cc(-c3c(C)ncnc3C)ccc2c(-c2ccc3c4c(ccnc24)CCO3)c1[C@H](OC(C)(C)C)C(=O)O (atropisomer, axis not shown) [Example 59]
32400 nM	CC(C)(C)O[C@H](C(=O)O)c1c(-c2ccc3c4c(ccnc24)CCO3)c2ccccc2c2occc12 (atropisomer, axis not shown) [Example 77]
30.5 nM	Cc1cc2cc(-c3cncnc3C)ccc2c(-c2ccc3c4c(ccnc24)CCO3)c1[C@H](OC(C)(C)C)C(=O)O (atropisomer, axis not shown) [Example 56]
40.9 nM	Cc1cc2cc(-c3ccc(-c4cncnc4)cc3)ccc2c(-c2ccc3c4c(ccnc24)CCO3)c1[C@H](OC(C)(C)C)C(=O)O (atropisomer, axis not shown) [Example 41]
10000 nM	Cc1cc2cc(-c3cncnc3C)ccc2c(-c2ccc3c4c(ccnc24)CCO3)c1[C@H](OC(C)(C)C)C(=O)O (atropisomer, axis not shown) [Example 57]
45.2 nM	Cc1cc2cc(-c3cnc(-c4cncnc4)nc3)ccc2c(-c2ccc3c4c(ccnc24)CCO3)c1[C@H](OC(C)(C)C)C(=O)O (atropisomer, axis not shown) [Example 38]
19400 nM	Cc1cc2cc(-c3cncnc3N)ccc2c(-c2ccc3c4c(ccnc24)CCO3)c1[C@H](OC(C)(C)C)C(=O)O (atropisomer, axis not shown) [Example 54]
100 nM	Cc1cc2cc(-c3cnc(-c4ccccc4)nc3)ccc2c(-c2ccc3c4c(ccnc24)CCO3)c1[C@H](OC(C)(C)C)C(=O)O (atropisomer, axis not shown) [Example 36]
